The values that follow are results of earlier work, collected in Sander's compilation of Henry's law constants (doi:10.1039/f19888401985).

Structures are written as SMILES.

A short description of this data set: Henry solubility constant Hcp at 298.15 K (mol/(m3 Pa)). Conditions: reference: Abraham and Matteoli (1988); cited value.
`CCCC` [butane]: the “Henry solubility constant Hcp” value is 1.3e-05. For `[He]` [helium], the “Henry solubility constant Hcp” value is 3.8e-06.

Consider `CCCCCCC` [heptane], for which the “Henry solubility constant Hcp” value is 4.4e-06. As for `[Rn]` [radon], the “Henry solubility constant Hcp” value was 9.1e-05. Regarding `[Xe]` [xenon], the “Henry solubility constant Hcp” value was 4.3e-05. Turning to `CCCCCC` [hexane], the “Henry solubility constant Hcp” value was 6.1e-06. As to `[Kr]` [krypton], the “Henry solubility constant Hcp” value is 2.5e-05. For `CCCCC` [pentane], the “Henry solubility constant Hcp” value is 8e-06. Consider `[Ar]` [argon], for which the “Henry solubility constant Hcp” value is 1.4e-05. On to `CCCCCCCC` [octane], for which the “Henry solubility constant Hcp” value was 3.1e-06.

As for `[Ne]` [neon], the “Henry solubility constant Hcp” value is 4.4e-06.
